# Results published in article PMC7826463, “Pamiparib dose escalation in Chinese patients with non‐mucinous high‐grade ovarian cancer or advanced triple‐negative breast cancer” (Cancer Medicine, 2020).
# Where “and” joins values, the source holds several entries; their conditions need not be identical. Equal entries are not always repeated. Entries after “also recorded” stand apart in the source; their conditions may differ.
# System: Chinese patients with advanced HGOC or TNBC
# Assay: Safety/tolerability (adverse events per NCI-CTCAE v4.03, DLTs) in phase 1 dose escalation (NCT03333915)
# Format: in vivo
# Source text: This phase 1/2, open‐label, multicenter study assessed the safety and antitumor activity of pamiparib in Chinese patients ≥18 years with advanced solid tumors whose disease progressed despite standard therapy or for which there is no standard therapy. Phase 1 was a dose‐escalation study, with a 3 + 3 design, that evaluated the single‐agent safety/tolerability, pharmacokinetic (PK) profile, and preliminary antitumor activity of pamiparib and confirmed the RP2D in Chinese patients (Figure 1). The phase 2 dose‐expansion component of this study is investigating the single‐agent antitumor activity and safety/tolerability of pamiparib.
# In phase 1, patients received pamiparib at 20, 40, and 60 mg BID dose levels. The starting dose for pamiparib (20 mg BID) was selected as one‐third of the RP2D (60 mg BID) and one‐fourth of the MTD (80 mg BID), which were determined in the FIH study. […] Safety evaluations, including dose‐limiting toxicities (DLTs), of ≥3 patients completing one cycle of treatment at a specific dose level were required before proceeding to the next cohort with a higher dose level. Patients could continue the study treatment in 21‐day cycles and subsequent cycles at the discretion of the investigator.
# The primary objective in phase 1 was to evaluate the safety and tolerability of pamiparib. Safety and tolerability endpoint assessments were based on monitoring of treatment‐emergent adverse events (AEs), in addition to vital signs, electrocardiograms, physical examinations, and clinical laboratory results. The incidence and severity of all AEs and incidence of serious AEs were assessed according to the National Cancer Institute‐Common Terminology Criteria for Adverse Events v4.03.
# Approximately 14 to 18 evaluable patients were expected to enroll in the phase 1 part of the study. The safety population included all patients who received ≥1 dose of pamiparib. The PK population included all patients for whom valid pamiparib PK parameters could be estimated. Antitumor activity per RECIST v1.1 was assessed in all evaluable patients. Patients were considered response evaluable if they had measurable disease at baseline per RECIST v1.1 and had ≥1 post‐baseline tumor assessment, unless treatment had been discontinued due to clinical progression or death prior to tumor assessment. The population evaluable for CA‐125 response included patients in the safety population with baseline CA‐125 ≥2 x upper limit of normal.
compound,measurement,setting,value
"C[C@]12CCCN1CC1=NNC(=O)c3cc(F)cc4[nH]c2c1c34 [pamiparib, Pamiparib]","Treatment-related adverse event Decreased white blood cell count, Grade ≥3",60 mg BID (n = 7),2 (28.6) n (%)
same,"Treatment-related adverse event Diarrhea, All Grades",60 mg BID (n = 7),2 (28.6) n (%)
same,"Treatment-related adverse event Diarrhea, Grade ≥3",60 mg BID (n = 7),0 n (%)
same,"Treatment-related adverse event Increased GGT, All Grades",60 mg BID (n = 7),1 (14.3) n (%)
same,"Treatment-related adverse event Increased GGT, Grade ≥3",60 mg BID (n = 7),0 n (%)
same,"Treatment-related adverse event Increased conjugated bilirubin, All Grades",60 mg BID (n = 7),2 (28.6) n (%)
same,"Treatment-related adverse event Increased conjugated bilirubin, Grade ≥3",60 mg BID (n = 7),0 n (%)
same,"Treatment-related adverse event Nausea, All Grades",60 mg BID (n = 7),5 (71.4) n (%)
same,"Treatment-related adverse event Nausea, Grade ≥3",60 mg BID (n = 7),1 (14.3) n (%)
same,"Treatment-related adverse event Prolonged electrocardiogram QT, All Grades",60 mg BID (n = 7),2 (28.6) n (%)
same,"Treatment-related adverse event Prolonged electrocardiogram QT, Grade ≥3",60 mg BID (n = 7),0 n (%)
same,"Treatment-related adverse event Somnolence, All Grades",60 mg BID (n = 7),1 (14.3) n (%)
same,"Treatment-related adverse event Somnolence, Grade ≥3",60 mg BID (n = 7),0 n (%)
same,"Treatment-related adverse event Tachycardia, All Grades",60 mg BID (n = 7),2 (28.6) n (%)
same,"Treatment-related adverse event Tachycardia, Grade ≥3",60 mg BID (n = 7),0 n (%)
same,"Treatment-related adverse event Vomiting, All Grades",60 mg BID (n = 7),2 (28.6) n (%)
same,"Treatment-related adverse event Vomiting, Grade ≥3",60 mg BID (n = 7),1 (14.3) n (%)
same,Discontinued treatment: Adverse event,"60 mg BID (n=7), count (percent)",2 (28.6)
same,Tolerability,"20 to 60 mg BID, Chinese patients",generally well tolerated
same,Grade 3 TRAE: anemia,N = 15,2 n
same,Grade 4 or 5 TRAEs,N = 15,No grade 4 or 5 TRAEs
same,Grade ≥4 AEs,N = 15,no grade ≥4 AEs
same,Patients who experienced a serious AE,N = 15,three
same,Patients who experienced ≥1 AE considered related to pamiparib,N = 15,100%
same,Serious AE: abdominal infection,N = 15,1 n
same,Serious AE: intestinal obstruction,N = 15,1 n
same,Serious AE: pleural effusion,N = 15,1 n
same,Serious AEs considered related to study treatment,N = 15,none and no DLTs or serious AEs considered related to pamiparib
same,Patients who experienced grade ≥3 AEs,"N = 15 (10 patients), all causality",67%
same,Patients who experienced ≥1 TRAE of grade 3 severity,N = 15 (six patients),40%
same,AE of any grade: asthenia,"N = 15, all causality",80%
same,AE of any grade: decreased appetite,"N = 15, all causality",60%
same,AE of any grade: decreased white blood cell count,"N = 15, all causality",67%
same,AE of any grade: nausea,"N = 15, all causality",80%
same,Grade ≥3 AE: anemia,"N = 15, all causality",27%
same,Grade ≥3 AE: decreased hemoglobin,"N = 15, all causality",20%
same,Patients who experienced ≥1 AE of any grade,"N = 15, all causality",15 patients
same,Treatment-related AE: asthenia,"N = 15, any grade",80%
same,Treatment-related AE: nausea,"N = 15, any grade",80%
same,Recommended phase 2 dose (RP2D) confirmed in Chinese patients,PO,60 mg BID
same,"Treatment-related adverse event Asthenia, All Grades",Total (N = 15),12 n (%) and 12 (80.0) n (%)
same,"Treatment-related adverse event Asthenia, Grade ≥3",Total (N = 15),0 n (%)
same,"Treatment-related adverse event Decreased appetite, All Grades",Total (N = 15),9 (60.0) n (%)
same,"Treatment-related adverse event Decreased appetite, Grade ≥3",Total (N = 15),0 n (%)
same,"Treatment-related adverse event Decreased hemoglobin, All Grades",Total (N = 15),6 (40.0) n (%)
same,"Treatment-related adverse event Decreased hemoglobin, Grade ≥3",Total (N = 15),3 n (%) and 3 (20) n (%)
same,"Treatment-related adverse event Decreased neutrophil count, All Grades",Total (N = 15),8 (53.3) n (%)
same,"Treatment-related adverse event Decreased neutrophil count, Grade ≥3",Total (N = 15),2 n (%) and 2 (13) n (%)
same,"Treatment-related adverse event Decreased platelet count, All Grades",Total (N = 15),3 (20.0) n (%)
same,"Treatment-related adverse event Decreased platelet count, Grade ≥3",Total (N = 15),1 n (%) and 1 (7) n (%)
same,"Treatment-related adverse event Decreased white blood cell count, All Grades",Total (N = 15),10 (66.7) n (%)
same,"Treatment-related adverse event Decreased white blood cell count, Grade ≥3",Total (N = 15),2 n (%) and 2 (13) n (%)
same,"Treatment-related adverse event Diarrhea, All Grades",Total (N = 15),3 (20.0) n (%)
same,"Treatment-related adverse event Diarrhea, Grade ≥3",Total (N = 15),0 n (%)
same,"Treatment-related adverse event Increased GGT, All Grades",Total (N = 15),3 (20.0) n (%)
same,"Treatment-related adverse event Increased GGT, Grade ≥3",Total (N = 15),0 n (%)
same,"Treatment-related adverse event Increased conjugated bilirubin, All Grades",Total (N = 15),4 (26.7) n (%)
same,"Treatment-related adverse event Increased conjugated bilirubin, Grade ≥3",Total (N = 15),0 n (%)
same,"Treatment-related adverse event Nausea, All Grades",Total (N = 15),12 n (%) and 12 (80.0) n (%)
same,"Treatment-related adverse event Nausea, Grade ≥3",Total (N = 15),1 n (%) and 1 (7) n (%)
same,"Treatment-related adverse event Prolonged electrocardiogram QT, All Grades",Total (N = 15),4 (26.7) n (%)
same,"Treatment-related adverse event Prolonged electrocardiogram QT, Grade ≥3",Total (N = 15),1 n (%) and 1 (7) n (%)
same,"Treatment-related adverse event Somnolence, All Grades",Total (N = 15),3 (20.0) n (%)
same,"Treatment-related adverse event Somnolence, Grade ≥3",Total (N = 15),0 n (%)
same,"Treatment-related adverse event Tachycardia, All Grades",Total (N = 15),3 (20.0) n (%)
same,"Treatment-related adverse event Tachycardia, Grade ≥3",Total (N = 15),0 n (%)
same,"Treatment-related adverse event Vomiting, All Grades",Total (N = 15),4 (26.7) n (%)
same,"Treatment-related adverse event Vomiting, Grade ≥3",Total (N = 15),1 n (%) and 1 (7) n (%)
same,Dose-limiting toxicities (DLTs),"pamiparib dose range 20-60 mg BID, 23-day initial cycle",No dose‐limiting toxicities; also recorded: no DLTs
